Measured values reported in US20100080770A1, “Hepatitis C Virus Inhibitors” (priority 2008, published 2010).
Like-named read-outs stand apart in the source and are kept apart here.

How the values were obtained:
[1] = system: HCV replicon in HUH-7 cells; assay: HCV replicon assay (FRET, confirmed in the luciferase reporter assay); type: cell-based; details: Hepatitis C virus, 96 h, 4 days
Description: An HCV replicon whole cell system was established as described by Lohmann V, Korner F, Koch J, Herian U, Theilmann L, Bartenschlager R., Science 285(5424):110-3 (1999). This system enabled us to evaluate the effects of our HCV Protease compounds on HCV RNA replication. Briefly, using the HCV strain 1b sequence described in the Lohmann paper (Assession number: AJ238799), an HCV cDNA was synthesized by Operon Technologies, Inc. (Alameda, Calif.), and the full-length replicon was then assembled in plasmid pGem9zf(+) (Promega, Madison, Wis.) using standard molecular biology techniques. The replicon consists of (i) the HCV 5′ UTR fused to the first 12 amino acids of the capsid protein, (ii) the neomycin phosphotransferase gene (neo), (iii) the IRES from encephalomyocarditis virus (EMCV), and (iv) HCV NS3. to NS5B genes and the HCV 3′ UTR. Plasmid DNAs were linearized with Seal and RNA transcripts were synthesized in vitro using the T7 MegaScript transcription kit (Ambion, Austin, Tex.) according to manufacturer's directions. In vitro transcripts of the cDNA were transfected into the human hepatoma cell line, HUH-7. […] Resulting cell lines were characterized for positive and negative strand RNA production and protein production over time.
The HCV replicon FRET assay was developed to monitor the inhibitory effects of compounds described in the disclosure on HCV viral replication. HUH-7 cells, constitutively expressing the HCV replicon, were grown in Dulbecco's Modified Eagle Media (DMEM) (Gibco-BRL) containing 10% Fetal calf serum (FCS) (Sigma) and 1 mg/ml G418 (Gibco-BRL). Cells were seeded the night before (1.5×10^4 cells/well) in 96-well tissue-culture sterile plates. Compound and no compound controls were prepared in DMEM containing 4% FCS, 1:100 Penicillin/Streptomysin (Gibco-BRL), 1:100 L-glutamine and 5% DMSO in the dilution plate (0.5% DMSO final concentration in the assay). Compound/DMSO mixes were added to the cells and incubated for 4 days at 37° C. After 4 days, cells were first assessed for cytotoxicity using alamar Blue (Trek Diagnotstic Systems) for a CC50 reading. The toxicity of compound (CC50) was determined by adding 1/10th volume of alamar Blue to the media incubating the cells. After 4 h, the fluorescence signal from each well was read, with an excitation wavelength at 530 nm and an emission wavelength of 580 nm, using the Cytofluor Series 4000 (Perspective Biosystems). Plates were then rinsed thoroughly with Phosphate-Buffered Saline (PBS) (3 times 150 μl).
As a secondary assay, EC50 determinations from the replicon FRET assay were confirmed in a replicon luciferase reporter assay. Utilization of a replicon luciferase reporter assay was first described by Krieger et al (Krieger N, Lohmann V, and Bartenschlager R, J. Virol. 75(10):4614-4624 (2001)). The replicon construct described for our FRET assay was modified by inserting cDNA encoding a humanized form of the Renilla luciferase gene and a linker sequence fused directly to the 3′-end of the luciferase gene. This insert was introduced into the replicon construct using an Ascl restriction site located in core, directly upstream of the neomycin marker gene. The adaptive mutation at position 1179 (serine to isoleucine) was also introduced (Blight K J, Kolykhalov, A A, Rice, C M, Science 290(5498):1972-1974). A stable cell line constitutively expressing this HCV replicon construct was generated as described above. The luciferase reporter assay was set up as described for the HCV replicon FRET assay with the following modifications. Following 4 days in a 37° C./5% CO2 incubator, cells were analyzed for Renilla Luciferase activity using the Promega Dual-Glo Luciferase Assay System. Media (100 μl) was removed from each well containing cells. To the remaining 50 μl of media, 50 μl of Dual-Glo Luciferase Reagent was added, and plates rocked for 10 min to 2 h at room temperature. […]

[2] = target: T1, HCV NS3/4A protease complex (Hepatitis C virus genotype 1a, UniProt P27958, C1454S/C1711G); assay: FRET peptide assay to monitor HCV NS3/4A proteolytic activity; type: biochemical; details: HCV NS3/4A protease complex, strain not stated, read-out: IC50
T1 construct: recombinant HCV NS3/4A protease complex (amino acids 1027 to 1711); inferred from the pET21b vector and Ni-NTA purification; made in house; host or cells: Escherichia coli BL21 (DE3)
Description: HCV NS3 protease complexes, derived from the BMS strain, H77 strain or J4L6S strain, were generated, as described below. These purified recombinant proteins were generated for use in a homogeneous assay (see below) to provide an indication of how effective compounds of the present disclosure would be in inhibiting HCV NS3 proteolytic activity.
The H77 and J4L6S strains were used for production of recombinant NS3/4A protease complexes. DNA encoding the recombinant HCV NS3/4A protease complex (amino acids 1027 to 1711) for these strains was manipulated as described by P. Gallinari et al. (see Gallinari P, Paolini C, Brennan D, Nardi C, Steinkuhler C, De Francesco R. Biochemistry. 38(17):5620-32, (1999)). Briefly, a three-lysine solubilizing tail was added at the 3′-end of the NS4A coding region. The cysteine in the P1 position of the NS4A-NS4B cleavage site (amino acid 1711) was changed to a glycine to avoid the proteolytic cleavage of the lysine tag. Furthermore, a cysteine to serine mutation was introduced by PCR at amino acid position 1454 to prevent the autolytic cleavage in the NS3 helicase domain. The variant DNA fragment was cloned in the pET21b bacterial expression vector (Novagen) and the NS3/4A complex was expressed in Escherichia coli strain BL21 (DE3) (Invitrogen) following the protocol described by P. Gallinari et al. (see Gallinari P, Brennan D, Nardi C, Brunetti M, Tomei L, Steinkuhler C, De Francesco R., J Virol. 72(8):6758-69 (1998)) with modifications. Briefly, the NS3/4A protease complex expression was induced with 0.5 millimolar (mM) Isopropyl β-D-1-thiogalactopyranoside (IPTG) for 22 hours (h) at 20° C. A typical fermentation (1 Liter (L)) yielded approximately 10 grams (g) of wet cell paste. The cells were resuspended in lysis buffer (10 mL/g) consisting of 25 mM N-(2-Hydroxyethyl)Piperazine-N′-(2-Ethane Sulfonic acid) (HEPES), pH 7.5, 20% glycerol, 500 mM Sodium Chloride (NaCl), 0.5% Triton X-100, 1 microgram/milliliter (“μg/mL”) lysozyme, 5 mM Magnesium Chloride (MgCl2), 1 μg/ml DnaseI, 5 mM β-Mercaptoethanol (βME), Protease inhibitor-Ethylenediamine Tetraacetic acid (EDTA) free (Roche), homogenized and incubated for 20 minutes (min) at 4° C. The homogenate was sonicated and clarified by ultra-centrifugation at 235000 g for 1 hour (h) at 4° C. Imidazole was added to the supernatant to a final concentration of 15 mM and the pH adjusted to 8.0. The crude protein extract was loaded on a Nickel-Nitrilotriacetic acid (Ni-NTA) column pre-equilibrated with buffer B (25 mM HEPES, pH 8.0, 20% glycerol, 500 mM NaCl, 0.5% Triton X-100, 15 mM imidazole, 5 mM βME). The sample was loaded at a flow rate of 1 ml/min. The column was washed with 15 column volumes of buffer C (same as buffer B except with 0.2% Triton X-100). The protein was eluted with 5 column volumes of buffer D (same as buffer C except with 200 mM Imidazole).
NS3/4A protease complex-containing fractions were pooled and loaded on a desalting column Superdex-S200 pre-equilibrated with buffer D (25mM HEPES, pH 7.5, 20% glycerol, 300 mM NaCl, 0.2% Triton X-100, 10 mM βME). Sample was loaded at a flow rate of 1 mL/min. NS3/4A protease complex-containing fractions were pooled and concentrated to approximately 0.5 mg/ml. The purity of the NS3/4A protease complexes, derived from the BMS, H77 and J4L6S strains, were judged to be greater than 90% by SDS-PAGE and mass spectrometry analyses. The enzyme was stored at −80° C., thawed on ice and diluted prior to use in assay buffer.
The purpose of this in vitro assay was to measure the inhibition of HCV NS3 protease complexes, derived from the BMS strain, H77 strain or J4L6S strain, as described above, by compounds of the present disclosure. This assay provides an indication of how effective compounds of the present disclosure would be in inhibiting HCV NS3 proteolytic activity.
In order to monitor HCV NS3/4A protease activity, an NS3/4A peptide substrate was used. […]

T1 sequence (P27958 1027-1711 C1454S/C1711G, one chain of several): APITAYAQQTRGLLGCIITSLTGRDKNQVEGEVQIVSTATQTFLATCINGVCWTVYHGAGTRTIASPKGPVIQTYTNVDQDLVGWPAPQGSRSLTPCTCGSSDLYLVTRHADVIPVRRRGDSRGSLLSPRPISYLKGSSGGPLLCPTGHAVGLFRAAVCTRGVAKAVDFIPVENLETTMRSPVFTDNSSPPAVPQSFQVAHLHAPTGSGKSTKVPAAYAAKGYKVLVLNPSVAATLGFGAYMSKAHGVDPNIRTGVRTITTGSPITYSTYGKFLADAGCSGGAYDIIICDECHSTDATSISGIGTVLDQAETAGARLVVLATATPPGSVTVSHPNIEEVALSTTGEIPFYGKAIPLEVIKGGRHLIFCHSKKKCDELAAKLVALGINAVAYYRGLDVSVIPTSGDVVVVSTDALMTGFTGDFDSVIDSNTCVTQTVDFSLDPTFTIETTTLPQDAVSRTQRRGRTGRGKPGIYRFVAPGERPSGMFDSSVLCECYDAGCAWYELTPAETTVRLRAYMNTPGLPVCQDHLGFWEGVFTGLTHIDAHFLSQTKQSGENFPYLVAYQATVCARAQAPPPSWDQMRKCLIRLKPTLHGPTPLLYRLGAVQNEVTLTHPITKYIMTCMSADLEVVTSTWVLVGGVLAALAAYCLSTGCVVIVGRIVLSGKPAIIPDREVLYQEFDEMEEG

COc1cc2ccc3cc2cc1CCCCC(C)(C)COC(=O)N[C@@H](C(C)(C)C)C(=O)N1C[C@@]3(OC)C[C@H]1C(=O)N[C@]1(C(=O)NS(=O)(=O)C2CC2)C[C@H]1C1CC1 [Example 15]
EC50 ([1]; class symbols): 1 to 10 nM | IC50 ([2]; class symbols): 1 to 10 nM

C=C[C@@H]1C[C@]1(NC(=O)[C@@H]1C[C@]2(OC)CN1C(=O)[C@H](C(C)(C)C)NC(=O)OCC(C)(C)C/C=C\c1cc3cc2ccc3cc1OC)C(=O)NS(=O)(=O)C1CC1 [Example 8]
EC50 ([1]; class symbols): 1 to 10 nM | IC50 ([2]; class symbols): 1 to 10 nM

COc1cc2ccc3cc2cc1CCCC(C)(C)CCOC(=O)N[C@@H](C(C)(C)C)C(=O)N1C[C@@]3(OC)C[C@H]1C(=O)N[C@]1(C(=O)NS(=O)(=O)C2CC2)C[C@H]1C(F)F [Example 18]
EC50 ([1]; class symbols): 1 to 10 nM | IC50 ([2]; class symbols): 1 to 10 nM

C=C[C@@H]1C[C@]1(NC(=O)[C@@H]1C[C@]2(OC)CN1C(=O)[C@H](C(C)(C)C)NC(=O)OCCC/C=C\c1cc3cc2ccc3cc1OC)C(=O)NS(=O)(=O)C1CC1 [Example 4]
EC50 ([1]; class symbols): 1 to 10 nM | IC50 ([2]; class symbols): 1 to 10 nM

C=C[C@@H]1C[C@]1(NC(=O)[C@@H]1C[C@]2(OC)CN1C(=O)[C@H](C(C)(C)C)NC(=O)OCCC(C)(C)CCCc1cc3cc2ccc3cc1OC)C(=O)NS(=O)(=O)C1CC1 [Example 17]
EC50 ([1]; class symbols): 1 to 10 nM | IC50 ([2]; class symbols): 1 to 10 nM

COc1cc2ccc3cc2cc1CCCCCCOC(=O)N[C@@H](C(C)(C)C)C(=O)N1C[C@@]3(OC)C[C@H]1C(=O)N[C@]1(C(=O)NS(=O)(=O)C2CC2)C[C@H]1C1CC1 [Example 13]
EC50 ([1]; class symbols): 11 to 20 nM | IC50 ([2]; class symbols): 1 to 10 nM

C=C[C@@H]1C[C@]1(NC(=O)[C@@H]1C[C@]2(OC)CN1C(=O)[C@H](C(C)(C)C)NC(=O)OCCCCC=Cc1cc3cc2ccc3cc1OC)C(=O)NS(=O)(=O)C1CC1 [Example 7]
EC50 ([1]; class symbols): 1 to 10 nM | IC50 ([2]; class symbols): 1 to 10 nM

CC[C@@H]1C[C@]1(NC(=O)[C@@H]1C[C@]2(OC)CN1C(=O)[C@H](C(C)(C)C)NC(=O)OCC(C)(C)CCCCc1cc3cc2ccc3cc1OC)C(=O)NS(=O)(=O)C1CC1 [Example 16]
EC50 ([1]; class symbols): 21 to 150 nM | IC50 ([2]; class symbols): 11 to 12 nM

C=C[C@@H]1C[C@]1(NC(=O)[C@@H]1C[C@]2(OC)CN1C(=O)[C@H](C(C)(C)C)NC(=O)OCCCCCCc1cc3cc2ccc3cc1OC)C(=O)NS(=O)(=O)C1CC1 [Example 12]
EC50 ([1]; numeric values): 2.84 nM | IC50 ([2]; numeric values): 1 nM

C=C[C@@H]1C[C@]1(NC(=O)[C@@H]1C[C@]2(OC)CN1C(=O)[C@H](C(C)(C)C)NC(=O)OCC/C=C\c1cc3cc2ccc3cc1OC)C(=O)NS(=O)(=O)C1CC1 [Example 1]
EC50 ([1]; numeric values): 120 nM | IC50 ([2]; numeric values): 31 nM

COc1cc2ccc3cc2cc1CCCC(C)(C)CCOC(=O)N[C@@H](C(C)(C)C)C(=O)N1C[C@@]3(OC)C[C@H]1C(=O)N[C@]1(C(=O)NS(=O)(=O)C2CC2)C[C@H]1C1CC1 [Example 19]
EC50 ([1]; class symbols): 1 to 10 nM | IC50 ([2]; class symbols): 1 to 10 nM

C=C[C@@H]1C[C@]1(NC(=O)[C@@H]1C[C@]2(OC)CN1C(=O)[C@H](C(C)(C)C)NC(=O)OCC(C)(C)CCCc1cc3cc2ccc3cc1OC)C(=O)NS(=O)(=O)C1CC1 [Example 9]
EC50 ([1]; class symbols): 1 to 10 nM | IC50 ([2]; class symbols): 1 to 10 nM

COc1cc2ccc3cc2cc1CCCC(C)(C)COC(=O)N[C@@H](C(C)(C)C)C(=O)N1C[C@@]3(OC)C[C@H]1C(=O)N[C@]1(C(=O)NS(=O)(=O)C2CC2)C[C@H]1C1CC1 [Example 10]
EC50 ([1]; class symbols): 21 to 150 nM | IC50 ([2]; class symbols): 11 to 12 nM

COc1cc2ccc3cc2cc1CCCC(C)(C)COC(=O)N[C@@H](C(C)(C)C)C(=O)N1C[C@@]3(OC)C[C@H]1C(=O)N[C@]1(C(=O)NS(=O)(=O)C2CC2)C[C@H]1C(F)F [Example 11]
EC50 ([1]; class symbols): 11 to 20 nM | IC50 ([2]; class symbols): 1 to 10 nM

C=C[C@@H]1C[C@]1(NC(=O)[C@@H]1C[C@]2(OC)CN1C(=O)[C@H](C(C)(C)C)NC(=O)OCC(C)(C)CCCCc1cc3cc2ccc3cc1OC)C(=O)NS(=O)(=O)C1CC1 [Example 14]
EC50 ([1]; class symbols): 1 to 10 nM | IC50 ([2]; class symbols): 1 to 10 nM
